Reference: publication PMC10004487, “Flavonoids from the Roots of Sophora flavescens and Their Potential Anti-Inflammatory and Antiproliferative Activities” (Molecules, 2023)
Structures can show the parent of a compound that is named as a salt. Where two headings read alike, the source gives them in different places.

How the values were obtained:
HepG2 cells = assay: Antiproliferative MTT assay on HepG2 cell lines; assay type: cell-based, Human; settings: read-out: IC50 (50% inhibitory concentration), antiproliferative effect, 24 and 48 h of incubation, mean ± SD of 3 tests
Procedure: Inhibitory rate (%) = [(O.DDrug − O.DBlank)/(O.DControl − O.DBlank)] ×100%. The IC50 values were calculated with probit analysis using software SPSS version 21.0.
(§1) Murine macrophages (RAW 264.7) were cultured in Dulbecco’s modified Eagle’s medium (DMEM) supplemented with the addition of 10% fetal bovine serum (FBS) and 1% streptomycin (10,000 μg/mL)-penicillin (10,000 U/mL) at 37 °C in a humidified incubator under 5% CO2. HepG2 cells were cultured at 37 °C under 5% CO2. The optimal fermentation culture medium comprised DMEM, 1% mixed penicillin (10,000 U mL^−1), 1% HEPES (BioFroxx, Hesse, Einhausen), and 10% fetal bovine serum (FBS), as well as streptomycin (SM) (10,000 μg/mL^−1) fluid. In all experiments, cells were left to acclimate for 24 h before any treatments.
Briefly, the cells were incubated in 96-well microplates (1 × 10^5 per well) and allowed to adhere for 24 h before drug administration. Then, the cell lines were treated with test compounds 1–36 at five concentrations (3.12, 6.25, 12.5, 25, and 50 μM). At 24 and 48 h of incubation, cells were treated with MTT (200 µL, 5.0 mg/mL) and dissolved in the culture medium, for 1 h under at 37 °C under a 5% CO2 humidified atmosphere. The MTT was then removed carefully and resolved with DMSO (150 μL/well). Optical density was recorded using a Thermo Fisher Scientific microplate reader at 490 nm. Cisplatin (CP) and medium were used as positive and negative controls, respectively.

[1] = test system: LPS-induced NO production in RAW 264.7 macrophages; assay: Inhibition of LPS-induced NO production in macrophages (Griess reagent); assay type: cell-based, Murine; settings: Mus musculus, RAW264.7, read-out: IC50 (50% inhibitory concentration), NO production inhibition
Procedure: NO is one of the immune effectors used by macrophages to defend our bodies against intracellular pathogens. […] NO production inhibition (%) = [(O.DLPS − O.DDrug)/(O.DLPS − O.DBlank)] × 100%. The determination of IC50 was calculated using probit analysis in SPSS version 21.0.
as §1
Activated macrophage cells could express inducible nitric oxide synthase (iNOS), catalyzing the production of NO from L-arginine. […] Afterward, costimulation for 24 h at 37 °C was carried out in an incubator under 5% CO2. Then, Griess reagents I and II (100 μL) were mixed with cell culture medium (70 μL). Prior to measuring the optical density, plates were incubated at room temperature for 10 min, and the absorbance at 540 nm was measured using a Thermo Fisher Scientific microplate reader. N(G)-monomethyl-L-arginine, monoacetate salt (L-NMMA), and the medium were used as positive and negative controls, respectively.

[2] = Cytotoxicity on RAW 264.7 macrophages (MTT cell viability); assay type: cell-based, Murine; settings: mouse
Procedure: The potential cytotoxicity of compounds on RAW 264.7 macrophages cells was determined before executing further studies. Macrophage cells were treated with compounds, and a mitochondria colorimetric (MTT) assay was used to test cell survival.
as §1
To measure cell viability, an MTT assay was performed. […] After washing twice with a PBS buffer, 20 μL of the MTT solution was added to each well, and incubation continued for 4 h. Optical density (O.D) was measured at 490 nm by a microplate reader (Thermo Fisher Scientific, Waltham, MA, USA). The relative cell viability was calculated in contrast to the normal control group.

[3] = RAW 264.7 pretreated with compound 1 h, then LPS 1 μg/mL for 24 h, Griess, mean ± SD of 3 tests

IC50 (HepG2 cells; Homo sapiens) [µM]	IC50 [1, 3] [µM]	Molecule	CC50 [2] [µM]	also measured
37.6 ± 0.7	–	CC(C)=CCc1c(O)cc(O)c2c1O[C@H](c1ccc(O)cc1O)CC2=O [Compound 5, leachianone G]	–	–
–	–	N.N.[Cl][Pt][Cl] [Cisplatin, reference compound]	–	IC50 (HepG2 cells): 24.5 ± 0.8 µM
–	9.3 ± 0.7	CC(C)=CCc1c(O)c(CC=C(C)C)c2c(c1O)C(=O)C[C@@H](c1ccc(O)cc1O)O2 [Compound 15, kushenol E]	18.8 ± 0.3	–
–	–	xanthogalenol [Compound 34]	–	IC50 (HepG2 cells): 48.6 ± 0.8 µM
–	8.4 ± 0.7	COc1cc(O)c(CC=C(C)C)c2c1C(=O)CC(c1ccc(O)cc1)O2 (stereo not shown) [Compound 2, isoxanthohumol]	> 50	–
41.4 ± 0.6	12.4 ± 0.9	CC(C)=CCc1c(O)cc(O)c2c(=O)c(O)c(-c3ccc(O)cc3)oc12 [Compound 19, noranhyoicaritin]	> 50	–
–	7.2 ± 0.6	C=C(C)[C@H](CC=C(C)C)Cc1c(O)cc(OC)c2c1O[C@H](c1ccc(O)cc1O)[C@@H](O)C2=O [Compound 29, kushenol I]	20.6 ± 1.1	–
0.46 ± 0.1	5.7 ± 0.4	C=C(C)C(CC=C(C)C)Cc1c(O)cc(O)c2c(=O)c(O)c(-c3ccc(O)cc3)oc12 (stereo not shown) [Compound 22, 8-lavandulylkaempferol]	13.8 ± 0.6	–
–	14.4 ± 0.4	C=C(C)[C@H](CC=C(C)C)Cc1c(O)cc(OC)c2c1O[C@H](c1ccc(O)cc1O)CC2=O [Compound 13, kurarinone]	33.8 ± 1	–
26.4 ± 0.3	–	COc1ccc(-c2oc3c(CC=C(C)C)c(O)cc(O)c3c(=O)c2O)cc1O [Compound 21, 8-(3,3-dimethylallyl)-tamarixetin]	–	–
30.8 ± 1.1	–	C=C(C)C(CC=C(C)C)Cc1c(O)c(CC=C(C)C)c(O)c2c1O[C@H](c1ccc(O)cc1O)CC2=O (stereo partly shown) [Compound 16, kushenol B]	–	–
34.9 ± 0.3	–	CC(C)=CCc1c(O)cc(O)c2c1O[C@H](c1ccc(O)cc1)CC2=O [Compound 1, sophorafiavanone B]	–	–
–	–	[H]/N=C(/NC)NCCC[C@H](N)C(=O)O [L-NMMA, N(G)-monomethyl-L-arginine, monoacetate salt, reference compound]	–	IC50 [1]: 21.8 ± 0.9 µM; CC50 ([2]; RAW 264.7 macrophages, MTT, compound 1 h then LPS 1 μg/mL 24 h, mean ± SD of 3 tests): > 50 µM
